This data set is described as follows: Solubility tests of UV filters in solubilizing agents. The settings on record: stirred seven days at 25° C., UV/Vis-spectrometry; for Solubility [%] of UV filter compound of formula (BPH-02) in solubilizing agent: UV filter (BPH-02); for Solubility [%] of UV filter compound of formula (HTP-02) in solubilizing agent: UV filter (HTP-02); for Solubility [%] of UV filter compound of formula (TAT-02) in solubilizing agent: UV filter (TAT-02). In kind it is physicochemical. Here is the method:
2 ml of the solubilizing agent are filled into a 20 ml vial with cap. Afterwards 0.02 g (1%) of the respective substance (UV Filter) are weighed and added to the solvent. The vial is placed into a thermostat-controlled water bath, wherein the suspension/solution is stirred during seven days at 25° C.
If the substance added to the solubilizing agent is fully soluble, additional substance is added until precipitation can be observed.
After seven days, the sample is centrifuged for 30 minutes at 13000 rpm at 25° C. The supernatant is transferred into a small beaker. In case the sample is still turbid, it is filtered through a 0.2 μm non-steril Membrex 25 PET filter. Clear solutions must not be filtered. When a clear solution is obtained, the concentration of the substance is determined with UV/Vis-spectrometry. For this purpose, the sample may be diluted with a suitable solvent or, in case of lower concentrations, may be measured as it s.
The concentration of the UV-spectroscopic results is measured with the extinction coefficient, which is determined independently with a solvent of similar polarity like that one used for dilution of the saturated solutions.
The solubility can be calculated using the Lambert-Beer-Law equation.

This is an account of results in patent publication US10219990B2, “Solubilizing agents for UV filters in cosmetic formulations” (BASF SE, priority 2014, dated 2019).

With `CCCCCCCCCC(=O)N(C)C` [Spectrasolv DMDA, reference compound], the “Solubility [%] of UV filter compound of formula (BPH-02) in solubilizing agent” value (“Solubility [%] … (BPH-02) in solubilizing agent” below) is listed as greater than 40%, the “Solubility [%] of UV filter compound of formula (HTP-02) in solubilizing agent” value (“Solubility [%] … (HTP-02) in solubilizing agent” for short) stood at 40% and the “Solubility [%] of UV filter compound of formula (TAT-02) in solubilizing agent” value (from here on “Solubility [%] … (TAT-02) in solubilizing agent”) is 23%.

As for Iso-C18-monolactate, the “Solubility [%] … (BPH-02) in solubilizing agent” value came to 12.2%, the “Solubility [%] … (HTP-02) in solubilizing agent” value was 3.3% and the “Solubility [%] … (TAT-02) in solubilizing agent” value stood at 13.4%.

C 23-Guerbet-monolactate: the “Solubility [%] … (BPH-02) in solubilizing agent” value worked out at 11.2%, the “Solubility [%] … (HTP-02) in solubilizing agent” value is listed as 2.9% and the “Solubility [%] … (TAT-02) in solubilizing agent” value came out at 11.9%.
